Test results from patent US4738954A, “Novel N^6 -substituted-5'-oxidized adenosine analogs” (Warner-Lambert Company, priority 1985, dated 1988).

Tests used:
adenosine A1 receptor = biological target: T1, adenosine A1 receptor (Rattus norvegicus, UniProt P25099); test: Adenosine Receptor Binding--A1 Receptor Affinity (RBA1), [3H]-CHA displacement; details: 1.0 nM [3H]-CHA, rat brain, 25° C, 1 h; read-out: RBA-1 (IC50, A1 receptor affinity)
T1 construct: Whole brain minus cerebellum and brainstem from male Long Evans rats; from tissue; host or cells: rat whole brain minus cerebellum and brainstem, membranes
T1 sequence (P25099 1-326): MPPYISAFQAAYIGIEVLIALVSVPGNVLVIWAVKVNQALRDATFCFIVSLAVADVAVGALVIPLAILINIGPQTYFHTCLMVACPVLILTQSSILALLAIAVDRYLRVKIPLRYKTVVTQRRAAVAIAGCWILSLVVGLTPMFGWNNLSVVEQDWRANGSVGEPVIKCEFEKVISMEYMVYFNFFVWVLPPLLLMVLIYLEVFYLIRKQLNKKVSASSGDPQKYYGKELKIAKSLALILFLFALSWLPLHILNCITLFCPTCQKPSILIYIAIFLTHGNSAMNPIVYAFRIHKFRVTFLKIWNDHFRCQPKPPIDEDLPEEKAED
Procedure: Adenosine Receptor Binding--A1 Receptor Affinity (RBA1)
Whole brain minus cerebellum and brainstem from male Long Evans rats (105-200 g) was homogenized in 30 volumes of ice-cold 0.05M Tris-HCl buffer pH 7.7 using a Brinkman Polytron PT-10, (setting number 6 for 20 seconds) and centrifuged for ten minutes at 20,000×g (Sorvall RC-2), 4° C. The supernatant was discarded, and the pellet was resuspended and centrifuged as before. The pellet was resuspended in 20 ml Tris-HCl buffer containing two International Units/ml of adenosine deaminase (Sigma type III from calf intestinal mucosa), incubated at 37° C. for 30 minutes, then subsequently at 0° C. for ten minutes. The homogenate was again centrifuged, and the final pellet was resuspended in ice-cold 0.05M Tris-HCl buffer pH 7.7 to a concentration of 20 mg/ml original wet tissue weight and used immediately.
Tissue homogenate (10 mg/ml) was incubated in 0.05M Tris-HCl buffer pH 7.7 containing 1.0 nM ((^3 H))-N^6 -cyclohexyladenosine ([^3 H]-CHA) with or without test agents in triplicate for one hour at 25° C. Incubation volume was 2 ml. Unbound [^3 H]-CHA was separated by rapid filtration under reduced pressure through Whatman glass fiber (GF/B) filters. The filters were rinsed three times with 5 ml of ice cold 0.05M Tris-HCl buffer pH 7.7. The radio-labeled ligand retained on the filter was measured by liquid scintillation spectrophotometry after shaking the filters for one hour or longer on a mechanical shaker in 10 ml of Beckman Ready-Solv HP scintillation cocktail.
Nonspecific binding was defined as the binding which occured in the presence of 1 mM theophylline. The concentration of test agent which inhibited 50% of the specific binding (IC50) was determined by nonlinear computer curve fit. The Scatchard plot was calculated by linear regression of the line obtained by plotting the amount of radioligand bound (pmoles/gram of tissue) versus [formula] Since the amount of radioligand bound was a small fraction of the total amount added, free radioligand was defined as the concentration of (nM) of radioligand added to the incubation mixture. The Hill coefficient was calculated by linear regression of the line obtained by plotting the log of the bound radioligand vs the log of the [formula] The maximal number of binding sites (Bmax) was calculated from the Scatchard plot.

[1] = tested on: mean arterial blood pressure and heart rate in the conscious rat; test: Antihypertensive evaluation (AHP3): aortic blood pressure and heart rate from conscious rats; assay type: in vivo
From the text: ANTIHYPERTENSIVE EVALUATION (AHP3)
This test procedure is described in the following paragraphs.
A Method for the Direct Monitoring of Aortic Blood Pressure and Heart Rate from Conscious Rats
The continous monitoring of pulsatile blood pressure (BP) from unrestrained conscious rats surgically equipped with polyethylene cannulas was accomplished by means of a computer assisted data capture scheme (CADCS). The basic elements of the methodology are the cannulation procedure and the CADCS.
Rats were anesthetized with Telazol (1:1 tiletamine HCl and zolazepam HCl); 20-40 mg/kg IM and the descending aorta exposed via a midline incision. Cannulas fabricated from polyethylene tubing were inserted into the aorta via an undersized puncture hole below the renal arteries. The puncture hole was made by a 23 G disposable needle with a section of the aorta clamped off above and below the puncture site. The cannulas, consisting of a PE100 (0.86 mm ID) body and a PE50 (0.58 mm ID) tip, were attached to a trocar, inserted through the psoas muscle, and passed subcutaneously along the midline of the back and externalized between the ears. The cannulas were anchored to the psoas muscle and between the scalulae (3-0 green braided suture). The midline incision was closed in two steps (muscle first, skin second) using contiuous over-and over sutures (4-0 chronic). Each rat was then given penicillin 30,000 units subcutaneously (Penicilling G Procaine Sterile Suspension).
The rats were fitted with a harness-spring-swivel assembly designed to protect the cannula and to provide the rat relative freedom of movement. The harnesses were fabricated from nylon hook and loop tape cemented to a metal plate to which spring wires (18-8 stainless steel) were attached to brass swivels. Each polyethylene cannula was channeled through a spring and connected through a swivel to a pressure transducer (Model P23Gb; Statham Instruments; Hato Rey, Puerto Rico) and an infusion pump (Sage model 234-7; Orion Research, Cambridge, MA) by means of PE100 tubing. While on test, each rat received a continuous slow infusion of heparinized saline solution (approximately […] or 40 units of heparin per 24 hours period) to prevent clot formation. Additional "flushes" of the cannula with heparinized saline were carried out when the aortic pluse pressure (systolic minus diastolic) was less than 25 mm Hg.
The pulsatile blood pressure and heart rate of each of 32 rats was monitored every minute by means of two in-laboratory microcomputers communicating directly with a data concentrator computer. The data were first stored on the data concentrator disk and then transferred to a magnetic tape for analysis and report generation by the main research computer. […]

SMILES | IC50 (adenosine A1 receptor) [nM] | MAP (mean arterial pressure) change ([1]; 10 mg/kg, hour 3, conscious rat) [%] | HR (heart rate) change ([1]; 1 mg/kg, hour 5, conscious rat) [%] | MAP (mean arterial pressure) change ([1]; 1 mg/kg, hour 5, conscious rat) [%] | MAP (mean arterial pressure) change ([1]; 10 mg/kg, hour 5, conscious rat) [%]
CCOC(=O)[C@H]1O[C@@H](n2cnc3c(NC4CC5CCC4C5)ncnc32)[C@H](O)[C@@H]1O (relative stereo) [Example 8, N-6-Norbornyl-adenosine-5'ethylcarboxylate] | 4 | 0 |  |  | 
CCNC(=O)[C@H]1O[C@@H](n2cnc3c(N[C@H](C)Cc4ccccc4)ncnc32)[C@H](O)[C@@H]1O [Example 1, (R)-N-6-[(2-phenyl-1-methyl)ethyl]-adenosine-5'-ethylcarboxamide] | 2 |  |  |  | 
CCNC(=O)[C@H]1O[C@@H](n2cnc3c(NCC(c4ccccc4)c4ccccc4)ncnc32)[C@H](O)[C@@H]1O [Example 3, N^6-(2,2-diphenylethyl)-adenosine-5'-ethylcarboxamide] | 16 |  | 0 | 0 | 
CCOC(=O)[C@H]1O[C@@H](n2cnc3c(NCC(c4ccccc4)c4ccccc4)ncnc32)[C@H](O)[C@@H]1O [Example 5, N6-(2,2-diphenylethyl)-5-adenosine-5'-ethylcarboxylate] | 291 |  |  |  | 0
CCNC(=O)[C@H]1O[C@@H](n2cnc3c(NCc4cccc5ccccc45)ncnc32)[C@H](O)[C@@H]1O [Example 6, N-6-Naphthylmethyladenosine-5'-ethylcarboxamide] | 49 |  |  |  | 
